Read-outs that look alike come from different tables or passages of the source.
Legend:
PXR (NR1I2) [1] = molecular target: T1, PXR (NR1I2) (Homo sapiens, UniProt O75469); experiment: ATG_PXRE_CIS: Factorial reporter gene assay (HepG2); format: cell-based; design: endogenous in cells; host or cells: HepG2; settings: HepG2
T1 sequence (O75469 1-434): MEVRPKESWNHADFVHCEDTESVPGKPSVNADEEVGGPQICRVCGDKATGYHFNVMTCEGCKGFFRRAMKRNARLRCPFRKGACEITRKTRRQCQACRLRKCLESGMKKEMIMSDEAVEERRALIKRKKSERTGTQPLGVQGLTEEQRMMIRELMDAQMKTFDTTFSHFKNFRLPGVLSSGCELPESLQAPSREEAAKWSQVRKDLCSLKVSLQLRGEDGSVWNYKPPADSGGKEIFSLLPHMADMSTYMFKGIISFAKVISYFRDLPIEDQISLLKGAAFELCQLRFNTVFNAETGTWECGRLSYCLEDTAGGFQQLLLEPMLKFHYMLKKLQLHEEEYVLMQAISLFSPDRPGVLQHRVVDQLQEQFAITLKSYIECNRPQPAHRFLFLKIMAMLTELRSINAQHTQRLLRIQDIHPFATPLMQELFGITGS
In short: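 HepG2 cells transfected with multiplexed reporter libraries: cis-acting binding-site reporters (CIS) and a one-hybrid nuclear-receptor trans system (TRANS). Chemicals tested at seven concentrations, starting at the maximum tolerated concentration with three-fold serial dilutions.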

Mouse Liver [2] = settings: ref ToxRefDB, cited from earlier work
Rat Liver [3] = settings: ref ToxRefDB, cited from earlier work
Rat Liver [4] = settings: ref ToxRefDB, cited from earlier work; remark: listed apart in the source
Mouse Liver [5] = settings: ref ToxRefDB, cited from earlier work; remark: listed apart in the source
Mouse Liver [6] = settings: ref ToxRefDB, cited from earlier work; remark: listed apart in the source
Rat Liver [7] = settings: ref ToxRefDB, cited from earlier work; remark: listed apart in the source
CYP2B6 = experiment: CLZD_CYP2B6: Change in expression of CYP2B6 (primary human hepatocytes); format: cell-based; settings: 24 hr
In short: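 Cultured primary human hepatocytes treated with chemicals for 6, 24 or 48 hr across five concentrations spanning 0.004-40 µM, then transcript level measured by quantitative nuclease protection in a multiplexed format.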

CYP1A2 = experiment: CLZD_CYP1A2: Change in expression of CYP1A2 (primary human hepatocytes); format: cell-based; settings: 24 hr
Experimental: (§1) This is a collection of multiplexed gene expression assays focused on Phase I and II xenobiotic metabolizing enzymes and transporters. Human primary cell cultures were treated with chemicals at 5 concentrations (0.004-40 [drawing 42] M) for 6, 24 and 48 hr. Concentration- and time-response profiles of chemicals were measured by the expression of key nuclear receptor target genes, activities of CYP1A enzymes (EROD), and cell morphology. Fourteen gene targets were monitored by quantitative nuclease protection assay including: six representative cytochrome P-450 genes, four hepatic transporters, three Phase II conjugating enzymes, and one endogenous metabolism gene involved in cholesterol synthesis. The target genes associated with nuclear receptor pathways are as follows: [drawing 43] and [drawing 44] with [drawing 45]; [drawing 46] , [drawing 47] , [drawing 48] , [drawing 49] , [drawing 50] and [drawing 51] with [drawing 52]; [drawing 53] , [drawing 54] , [drawing 55] and [drawing 56] with [drawing 57]; [drawing 58] with [drawing 59]; and [drawing 60] with [drawing 61] . Assays were run in primary human hepatocyte cultures by CellzDirect Invitrogen Inc. (Durham, NC), in collaboration with EPA.
(§2) Multiplexed Gene Expression in Human Primary Hepatocytes: This is a collection of multiplexed gene expression assays focused on Phase I and II metabolic enzymes and transporters. […] Fourteen gene targets were monitored by quantitative nuclease protection assay: six representative cytochrome P450 genes, four hepatic transporters, three Phase II conjugating enzymes, and one endogenous metabolism gene involved in cholesterol synthesis. Cells were exposed at 5 concentrations (0.004-40 µM) for 6, 24 or 48 hr. Gene targets are sentinels for five nuclear receptor signaling pathways: AhR, CAR, PXR, FXR, and PPARα. All gene are associated with nuclear receptor pathways: CYP1A1 and CYP1A2 with AHR; ABCB1, ABCG2, CYP2B6, CYP2C9, CYP2C19 and UGT1A1 with CAR; CYP3A4, GSTA2, SLCO1B1 and SULT2A1 with PXR; HMGCS2 with PPARA; and ABCB11 with FXR. […] Detailed description of the methods, data and analysis methods for this dataset will be presented in a separate publication.

CYP3A4 = experiment: CLZD_CYP3A4: Change in expression of CYP3A4 (primary human hepatocytes); format: cell-based; settings: 24 hr
Experimental: as §1, §2

CYP1A1 = experiment: CLZD_CYP1A1: Change in expression of CYP1A1 (primary human hepatocytes); format: cell-based; settings: 24 hr
Experimental: as §1, §2

PXR (NR1I2) [8] = molecular target: T1, PXR (NR1I2); experiment: ATG_PXR_TRANS: Factorial reporter gene assay (HepG2); format: cell-based; design: endogenous in cells; host or cells: HepG2; settings: HepG2
Experimental: (§3) A multiple reporter transcription unit (MRTU) library consisting of 48 transcription factor binding sites was transfected into the HepG2 human liver hepatoma cell line. In addition to the cis-acting reporter genes (CIS), a modification of the approach was used to generate a trans-system (TRANS) with a mammalian one-hybrid assay consisting of an additional 25 MRTU library reporting the activity of nuclear receptor super-family members. […] These assays were performed by Attagene Inc. (Morrisville NC) under contract to EPA.
(§4) In addition to the cis-acting reporter genes (CIS), a modification of the approach was used to generate a trans-system (TRANS) with a mammalian one-hybrid assay consisting of an additional 25 MRTU library reporting the activity of nuclear receptor super-family members. […] Chemicals were then tested in the CIS and TRANS assays at seven concentrations starting at the MTC and followed by three-fold serial dilutions. These assays were performed by Attagene Inc. (Morrisville NC) under contract to EPA. Detailed description of the methods, data and analysis methods for this dataset will be presented in a separate publication.

[9] = molecular target: T2, PPARG (peroxisome proliferator-activated receptor gamma) (Homo sapiens, UniProt P37231); experiment: ATG_PPARg_TRANS: Factorial reporter gene assay (HepG2); format: cell-based; settings: HepG2
T2 construct: expressed in transfected cells; host or cells: HepG2
T2 sequence (P37231 1-505): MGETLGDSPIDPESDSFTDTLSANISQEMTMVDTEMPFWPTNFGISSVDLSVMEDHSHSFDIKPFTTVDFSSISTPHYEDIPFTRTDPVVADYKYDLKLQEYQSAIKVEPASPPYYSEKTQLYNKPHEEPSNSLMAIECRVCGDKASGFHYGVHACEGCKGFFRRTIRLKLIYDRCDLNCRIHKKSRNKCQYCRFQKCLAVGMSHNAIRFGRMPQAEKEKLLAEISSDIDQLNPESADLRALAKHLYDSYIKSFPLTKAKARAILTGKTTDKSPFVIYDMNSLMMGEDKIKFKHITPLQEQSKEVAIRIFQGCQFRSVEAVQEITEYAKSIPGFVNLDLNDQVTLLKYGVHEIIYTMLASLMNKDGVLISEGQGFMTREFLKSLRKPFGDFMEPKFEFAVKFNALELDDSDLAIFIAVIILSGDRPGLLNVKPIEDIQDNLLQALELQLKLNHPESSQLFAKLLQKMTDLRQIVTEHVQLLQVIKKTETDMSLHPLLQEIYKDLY
Experimental: as §3, §4

[10] = mouse chronic study, liver, neoplastic lesion, coded 6 / Inf, code not explained in the table
[11] = rat chronic study, liver, any lesion, coded 6 / 0, code not explained in the table
[12] = rat chronic study, liver, preneoplastic lesion, coded 6 / 0, code not explained in the table
[13] = mouse chronic study, liver, preneoplastic lesion, coded 6 / Inf, code not explained in the table
[14] = mouse chronic study, liver, any lesion, coded 6 / Inf, code not explained in the table
[15] = rat chronic study, liver, neoplastic lesion, coded 6 / 0, code not explained in the table
[16] = mouse chronic study, liver, coded 6 / Inf, code not explained in table
[17] = rat chronic study, liver, coded 6 / 0, code not explained in table

COC(=O)c1ccccc1S(=O)(=O)NC(=O)Nc1nc(OC(F)F)cc(OC(F)F)n1 [r250]
ATG_PXRE_CIS (PXR (NR1I2) [1]): 4.469
CHR_Mouse_Liver_3_NeoplasticLesion (Mouse Liver [2]; mouse, chronic study): 6
CHR_Rat_Liver_1_AnyLesion (Rat Liver [3]; rat, chronic study): 0
CHR_Rat_Liver_2_PreneoplasticLesion (Rat Liver [4]; rat, chronic study): 0
CHR_Mouse_Liver_2_PreneoplasticLesion (Mouse Liver [5]; mouse, chronic study): 6
CHR_Mouse_Liver_1_AnyLesion (Mouse Liver [6]; mouse, chronic study): 6
CHR_Rat_Liver_3_NeoplasticLesion (Rat Liver [7]; rat, chronic study): 0
CLZD_CYP2B6_24 (CYP2B6): 5.187

Clc1cccc(C(Cl)(Cl)Cl)n1 [row 221]
ATG_PXRE_CIS (PXR (NR1I2) [1]): 4.292
CHR_Mouse_Liver_3_NeoplasticLesion (Mouse Liver [2]; chronic mouse study, liver): 6
CHR_Rat_Liver_1_AnyLesion (Rat Liver [3]; chronic rat study, liver): 6
CHR_Rat_Liver_2_PreneoplasticLesion (Rat Liver [4]; chronic rat study, liver): 0
CHR_Mouse_Liver_2_PreneoplasticLesion (Mouse Liver [5]; chronic mouse study, liver): 6
CHR_Mouse_Liver_1_AnyLesion (Mouse Liver [6]; chronic mouse study, liver): 6
CHR_Rat_Liver_3_NeoplasticLesion (Rat Liver [7]; chronic rat study, liver): 0
CLZD_CYP2B6_24 (CYP2B6): 5.088

CNc1cnn(-c2cccc(C(F)(F)F)c2)c(=O)c1Cl [row 222]
CLZD_CYP1A2_24 (CYP1A2): 4.939
ATG_PXRE_CIS (PXR (NR1I2) [1]): 4.62
CHR_Mouse_Liver_3_NeoplasticLesion (Mouse Liver [2]; chronic mouse study, liver): 6
CHR_Mouse_Liver_2_PreneoplasticLesion (Mouse Liver [5]; chronic mouse study, liver): 6
CHR_Mouse_Liver_1_AnyLesion (Mouse Liver [6]; chronic mouse study, liver): 6
CLZD_CYP3A4_24 (CYP3A4): 5.266
CLZD_CYP2B6_24 (CYP2B6): 4.975
CLZD_CYP1A1_24 (CYP1A1): 5.028

CCCCOCCOCCOCc1cc2c(cc1CCC)OCO2 [r246]
CLZD_CYP1A2_24 (CYP1A2): 5.617
ATG_PXRE_CIS (PXR (NR1I2) [1]): 5.42
CHR_Mouse_Liver_3_NeoplasticLesion (Mouse Liver [2]; mouse, chronic study): 6
ATG_PXR_TRANS (PXR (NR1I2) [8]): 4.824
CHR_Rat_Liver_1_AnyLesion (Rat Liver [3]; rat, chronic study): 6
CHR_Rat_Liver_2_PreneoplasticLesion (Rat Liver [4]; rat, chronic study): 6
CHR_Mouse_Liver_2_PreneoplasticLesion (Mouse Liver [5]; mouse, chronic study): 6
CHR_Mouse_Liver_1_AnyLesion (Mouse Liver [6]; mouse, chronic study): 6
ATG_PPARg_TRANS [9]: 4.602
CHR_Rat_Liver_3_NeoplasticLesion (Rat Liver [7]; rat, chronic study): 0
CLZD_CYP3A4_24 (CYP3A4): 5.527
CLZD_CYP2B6_24 (CYP2B6): 5.592

CCCCNC(=O)OCC#CI [Dataset S3 row 6]
CHR_Mouse_Liver_3_NeoplasticLesion (Mouse Liver [2]; [10]): 6
CHR_Rat_Liver_1_AnyLesion (Rat Liver [3]; [11]): 6
CHR_Rat_Liver_2_PreneoplasticLesion (Rat Liver [4]; [12]): 0
CHR_Mouse_Liver_2_PreneoplasticLesion (Mouse Liver [5]; [13]): 6
CHR_Mouse_Liver_1_AnyLesion (Mouse Liver [6]; [14]): 6
CHR_Rat_Liver_3_NeoplasticLesion (Rat Liver [7]; [15]): 0

C=CC1(C)OC(=O)N(c2cc(Cl)cc(Cl)c2)C1=O (centres unmarked) [chemical 319]
CHR_Mouse_Liver_3_NeoplasticLesion (Mouse Liver [2]; [16]): 6
CHR_Rat_Liver_1_AnyLesion (Rat Liver [3]; [17]): 6
CHR_Rat_Liver_2_PreneoplasticLesion (Rat Liver [4]; [17]): 6
CHR_Mouse_Liver_2_PreneoplasticLesion (Mouse Liver [5]; [16]): 6
CHR_Mouse_Liver_1_AnyLesion (Mouse Liver [6]; [16]): 6
CHR_Rat_Liver_3_NeoplasticLesion (Rat Liver [7]; [17]): 6

CCCOC(=O)c1ccc(C(=O)OCCC)nc1 [Dataset S3 row 4]
CHR_Mouse_Liver_3_NeoplasticLesion (Mouse Liver [2]; [10]): 6
CHR_Rat_Liver_1_AnyLesion (Rat Liver [3]; [11]): 6
CHR_Rat_Liver_2_PreneoplasticLesion (Rat Liver [4]; [12]): 6
CHR_Mouse_Liver_2_PreneoplasticLesion (Mouse Liver [5]; [13]): 6
CHR_Mouse_Liver_1_AnyLesion (Mouse Liver [6]; [14]): 6
CHR_Rat_Liver_3_NeoplasticLesion (Rat Liver [7]; [15]): 6

CNC(=O)Oc1ccccc1OC(C)C [r263]
CHR_Mouse_Liver_3_NeoplasticLesion (Mouse Liver [2]; mouse, chronic study): 6
CHR_Rat_Liver_1_AnyLesion (Rat Liver [3]; rat, chronic study): 0
CHR_Rat_Liver_2_PreneoplasticLesion (Rat Liver [4]; rat, chronic study): 0
CHR_Mouse_Liver_2_PreneoplasticLesion (Mouse Liver [5]; mouse, chronic study): 6
CHR_Mouse_Liver_1_AnyLesion (Mouse Liver [6]; mouse, chronic study): 6
CHR_Rat_Liver_3_NeoplasticLesion (Rat Liver [7]; rat, chronic study): 0
CLZD_CYP3A4_24 (CYP3A4): 5.055
CLZD_CYP2B6_24 (CYP2B6): 5.434

CCCCNC(=O)OCC#CI [Dataset S3 row 7]
CHR_Mouse_Liver_3_NeoplasticLesion (Mouse Liver [2]; [10]): 6
CHR_Rat_Liver_1_AnyLesion (Rat Liver [3]; [11]): 6
CHR_Rat_Liver_2_PreneoplasticLesion (Rat Liver [4]; [12]): 0
CHR_Mouse_Liver_2_PreneoplasticLesion (Mouse Liver [5]; [13]): 6
CHR_Mouse_Liver_1_AnyLesion (Mouse Liver [6]; [14]): 6
CHR_Rat_Liver_3_NeoplasticLesion (Rat Liver [7]; [15]): 0

From publication PMC3038857, “Using Nuclear Receptor Activity to Stratify Hepatocarcinogens” (PLoS ONE, 2011)
